Experiments:
[1] = target: T1, CDK4 (Homo sapiens, UniProt P11802); test: Western blot degradation of CDK4 (MDA-MB-231 Cell); type: cell-based; details: Table D3
T1 construct: evaluate the effects of the compounds of the present disclosure on the expression of target proteins in cells; endogenous in cells; host or cells: MDA-MB-231
Procedure: (§1) Conventional Western blot assay was performed to evaluate the effects of the compounds of the present disclosure on the expression of target proteins in cells.
(§2) (1) Cell Seeding and Protein Harvesting: The selected cells were processed according to the cell seeding procedure and protein harvesting procedure in Table III-2. Table III-2 Cell Seeding and Protein Harvesting Procedures
(§3) (2) To the collected supernatant, 5X SDS sample loading buffer was added, followed by denaturation at 95°C for 5 minutes. The denatured samples were then separated by SDS-PAGE electrophoresis on a polyacrylamide gel. Proteins were transferred to a nitrocellulose membrane (0.45 µm NC membrane), blocked with blocking buffer at room temperature for 1 hour, and subjected to antibody incubation and development procedures according to the antibody manufacturer's instructions (Cell Signaling Technology).
(§4) Half-Maximal Degradation Concentration value (the drug concentration required for degrading proteins by 50%, abbreviated as DC50) reads method: comparing the grayscale values of Western blot bands from drug-treated samples with those from blank DMSO-treated controls, and identifying the drug concentration range at which the grayscale value is half that of the DMSO-treated control bands.
(§5) DC50 values can be calculated using ImageJ software to measure grayscale values of Western blot bands from drug-treated samples. The concentration-response curve is fitted to estimate the drug concentration corresponding to half the grayscale value.
(§6) Target protein remaining (%) refers to the percentage of target protein remaining in hPBMC cells after treatment with protein degrader compounds.
(§7) Calculation method for target protein remaining (%): Use ImageJ software to measure grayscale values of Western blot bands from drug (protein degrader)-treated samples. The grayscale value of drug-treated bands is divided by that of internal control protein bands, and the resulting quotient is normalized to obtain the relative percentage of remaining target protein after protein degrader treatment.
(§8) Target protein degradation rate (%) = 100% - target protein remaining (%).

[2] = target: T2, CDK6 (Homo sapiens, UniProt Q00534); test: Western blot degradation of CDK6 (MDA-MB-231 Cell); type: cell-based; details: Table D3
T2 construct: evaluate the effects of the compounds of the present disclosure on the expression of target proteins in cells; endogenous in cells; host or cells: MDA-MB-231
Procedure: as §1, §2, §3, §4, §5, §6, §7, §8

T1 sequence (P11802 whole entry): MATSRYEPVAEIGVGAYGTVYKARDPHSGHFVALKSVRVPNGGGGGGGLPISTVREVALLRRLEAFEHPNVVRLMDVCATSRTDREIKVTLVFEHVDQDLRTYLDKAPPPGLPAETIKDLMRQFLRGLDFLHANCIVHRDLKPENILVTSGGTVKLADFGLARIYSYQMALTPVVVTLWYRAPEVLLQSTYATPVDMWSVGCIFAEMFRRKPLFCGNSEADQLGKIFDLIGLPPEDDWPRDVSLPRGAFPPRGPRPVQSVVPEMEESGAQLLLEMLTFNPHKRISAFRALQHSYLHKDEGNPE
T2 sequence (Q00534 whole entry): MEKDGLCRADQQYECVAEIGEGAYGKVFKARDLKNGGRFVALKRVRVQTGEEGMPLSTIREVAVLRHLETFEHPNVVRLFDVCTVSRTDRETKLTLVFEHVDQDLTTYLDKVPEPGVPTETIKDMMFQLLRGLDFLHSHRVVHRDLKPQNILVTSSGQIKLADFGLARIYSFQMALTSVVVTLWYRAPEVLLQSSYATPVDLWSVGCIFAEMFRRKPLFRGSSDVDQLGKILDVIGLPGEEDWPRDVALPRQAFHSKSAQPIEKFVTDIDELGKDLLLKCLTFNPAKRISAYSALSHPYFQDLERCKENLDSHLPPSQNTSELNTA

CN(C)C(=O)c1cc2cnc(Nc3ccc(N4CCN(Cc5ccc(C6CCC(=O)NC6=O)cc5)CC4)cn3)nc2n1C1CCCC1 (stereo not drawn) [GT-06339, 7-cyclopentyl-2-((5-(4-(4-(2,6-dioxopiperidin-3-yl)benzyl)piperazin-1-yl)pyridin-2-yl)amino)-N,N-dimethyl-7H-pyrrolo[2,3-d]pyrimidine-6-carboxamide]
Degradation of substrate protein CDK4 (substrate protein remaining %) [1]: A (A is defined as 0% ≤ substrate protein remaining % ≤ 80%)
Degradation of substrate protein CDK6 (substrate protein remaining %) [2]: A (A is defined as 0% ≤ substrate protein remaining % ≤ 80%)

CN(C)C(=O)c1cc2cnc(Nc3ccc(N4CCN(Cc5ccc(N6CCC(=O)NC6=O)cc5)CC4)cn3)nc2n1C1CCCC1 [GT-06340, 7-cyclopentyl-2-((5-(4-(4-(2,4-dioxotetrahydropyrimidin-1(2H)-yl)benzyl)piperazin-1-yl)pyridin-2-yl)amino)-N,N-dimethyl-7H-pyrrolo[2,3-d]pyrimidine-6-carboxamide]
Degradation of substrate protein CDK4 (substrate protein remaining %) [1]: A (A is defined as 0% ≤ substrate protein remaining % ≤ 80%)
Degradation of substrate protein CDK6 (substrate protein remaining %) [2]: A (A is defined as 0% ≤ substrate protein remaining % ≤ 80%)

CN(C)C(=O)c1cc2cnc(Nc3ccc(N4CCN(Cc5cccc(N6CCC(=O)NC6=O)c5)CC4)cn3)nc2n1C1CCCC1 [GT-06341, 7-cyclopentyl-2-((5-(4-(3-(2,4-dioxotetrahydropyrimidin-1(2H)-yl)benzyl)piperazin-1-yl)pyridin-2-yl)amino)-N,N-dimethyl-7H-pyrrolo[2,3-d]pyrimidine-6-carboxamide]
Degradation of substrate protein CDK4 (substrate protein remaining %) [1]: A (A is defined as 0% ≤ substrate protein remaining % ≤ 80%)
Degradation of substrate protein CDK6 (substrate protein remaining %) [2]: A (A is defined as 0% ≤ substrate protein remaining % ≤ 80%)

CN(C)C(=O)c1cc2cnc(Nc3ccc(N4CCN(Cc5ccc(N6CCC(=O)NC6=O)cn5)CC4)cn3)nc2n1C1CCCC1 [GT-06342, 7-cyclopentyl-2-((5-(4-((5-(2,4-dioxotetrahydropyrimidin-1(2H)-yl)pyridin-2-yl)methyl)piperazin-1-yl)pyridin-2-yl)amino)-N,N-dimethyl-7H-pyrrolo[2,3-d]pyrimidine-6-carboxamide]
Degradation of substrate protein CDK4 (substrate protein remaining %) [1]: A (A is defined as 0% ≤ substrate protein remaining % ≤ 80%)
Degradation of substrate protein CDK6 (substrate protein remaining %) [2]: A (A is defined as 0% ≤ substrate protein remaining % ≤ 80%)

CN(C)C(=O)c1cc2cnc(Nc3ccc(N4CCN(Cc5ccc(N6CCC(=O)NC6=O)nc5)CC4)cn3)nc2n1C1CCCC1 [GT-06343, 7-cyclopentyl-2-((5-(4-((6-(2,4-dioxotetrahydropyrimidin-1(2H)-yl)pyridin-3-yl)methyl)piperazin-1-yl)pyridin-2-yl)amino)-N,N-dimethyl-7H-pyrrolo[2,3-d]pyrimidine-6-carboxamide]
Degradation of substrate protein CDK4 (substrate protein remaining %) [1]: A (A is defined as 0% ≤ substrate protein remaining % ≤ 80%)
Degradation of substrate protein CDK6 (substrate protein remaining %) [2]: A (A is defined as 0% ≤ substrate protein remaining % ≤ 80%)

CN(C)C(=O)c1cc2cnc(Nc3ccc(N4CCN(Cc5cccc(NC6CCC(=O)NC6=O)c5)CC4)cn3)nc2n1C1CCCC1 (stereo not drawn) [GT-06344, 7-cyclopentyl-2-((5-(4-(3-((2,6-dioxopiperidin-3-yl)amino)benzyl)piperazin-1-yl)pyridin-2-yl)amino)-N,N-dimethyl-7H-pyrrolo[2,3-d]pyrimidine-6-carboxamide]
Degradation of substrate protein CDK4 (substrate protein remaining %) [1]: B (B is defined as substrate protein remaining % > 80%)
Degradation of substrate protein CDK6 (substrate protein remaining %) [2]: A (A is defined as 0% ≤ substrate protein remaining % ≤ 80%)

CN(C)C(=O)c1cc2cnc(Nc3ccc(N4CCC(N(C)Cc5ccc(C6CCC(=O)NC6=O)cc5)CC4)cn3)nc2n1C1CCCC1 (stereo not drawn) [GT-06490, 7-cyclopentyl-2-((5-(4-((4-(2,6-dioxopiperidin-3-yl)benzyl)(methyl)amino)piperidin-1-yl)pyridin-2-yl)amino)-N,N-dimethyl-7H-pyrrolo[2,3-d]pyrimidine-6-carboxamide]
Degradation of substrate protein CDK4 (substrate protein remaining %) [1]: A (A is defined as 0% ≤ substrate protein remaining % ≤ 80%)
Degradation of substrate protein CDK6 (substrate protein remaining %) [2]: B (B is defined as substrate protein remaining % > 80%)

CN(C)C(=O)c1cc2cnc(Nc3ccc(N4CCC(N(C)Cc5ccc(N6CCC(=O)NC6=O)cc5)CC4)cn3)nc2n1C1CCCC1 [GT-06491, 7-cyclopentyl-2-((5-(4-((4-(2,4-dioxotetrahydropyrimidin-1(2H)-yl)benzyl)(methyl)amino)piperidin-1-yl)pyridin-2-yl)amino)-N,N-dimethyl-7H-pyrrolo[2,3-d]pyrimidine-6-carboxamide]
Degradation of substrate protein CDK4 (substrate protein remaining %) [1]: B (B is defined as substrate protein remaining % > 80%)
Degradation of substrate protein CDK6 (substrate protein remaining %) [2]: A (A is defined as 0% ≤ substrate protein remaining % ≤ 80%)

CN(C)C(=O)c1cc2cnc(Nc3ccc(N4CCC(N(C)Cc5cccc(N6CCC(=O)NC6=O)c5)CC4)cn3)nc2n1C1CCCC1 [GT-06492, 7-cyclopentyl-2-((5-(4-((3-(2,4-dioxotetrahydropyrimidin-1(2H)-yl)benzyl)(methyl)amino)piperidin-1-yl)pyridin-2-yl)amino)-N,N-dimethyl-7H-pyrrolo[2,3-d]pyrimidine-6-carboxamide]
Degradation of substrate protein CDK4 (substrate protein remaining %) [1]: B (B is defined as substrate protein remaining % > 80%)
Degradation of substrate protein CDK6 (substrate protein remaining %) [2]: A (A is defined as 0% ≤ substrate protein remaining % ≤ 80%)

CN(C)C(=O)c1cc2cnc(Nc3ccc(N4CCC(N(C)Cc5ccc(N6CCC(=O)NC6=O)cn5)CC4)cn3)nc2n1C1CCCC1 [GT-06493, 7-cyclopentyl-2-((5-(4-(((5-(2,4-dioxotetrahydropyrimidin-1(2H)-yl)pyridin-2-yl)methyl)(methyl)amino)piperidin-1-yl)pyridin-2-yl)amino)-N,N-dimethyl-7H-pyrrolo[2,3-d]pyrimidine-6-carboxamide]
Degradation of substrate protein CDK4 (substrate protein remaining %) [1]: A (A is defined as 0% ≤ substrate protein remaining % ≤ 80%)
Degradation of substrate protein CDK6 (substrate protein remaining %) [2]: B (B is defined as substrate protein remaining % > 80%)

CN(C)C(=O)c1cc2cnc(Nc3ccc(N4CCC(N(C)Cc5cccc(NC6CCC(=O)NC6=O)c5)CC4)cn3)nc2n1C1CCCC1 (stereo not drawn) [GT-06495, 7-cyclopentyl-2-((5-(4-((3-((2,6-dioxopiperidin-3-yl)amino)benzyl)(methyl)amino)piperidin-1-yl)pyridin-2-yl)amino)-N,N-dimethyl-7H-pyrrolo[2,3-d]pyrimidine-6-carboxamide]
Degradation of substrate protein CDK4 (substrate protein remaining %) [1]: A (A is defined as 0% ≤ substrate protein remaining % ≤ 80%)
Degradation of substrate protein CDK6 (substrate protein remaining %) [2]: A (A is defined as 0% ≤ substrate protein remaining % ≤ 80%)

CC(=O)c1c(C)c2cnc(Nc3ccc(N4CCN(Cc5ccc(N6CCC(=O)NC6=O)cc5)CC4)cn3)nc2n(C2CCCC2)c1=O [GT-06576, 1-(4-((4-(6-((6-acetyl-8-cyclopentyl-5-methyl-7-oxo-7,8-dihydropyrido[2,3-d]pyrimidin-2-yl)amino)pyridin-3-yl)piperazin-1-yl)methyl)phenyl)dihydropyr imidine-2,4(1H,3H)-dione]
Degradation of substrate protein CDK4 (substrate protein remaining %) [1]: A (A is defined as 0% ≤ substrate protein remaining % ≤ 80%)
Degradation of substrate protein CDK6 (substrate protein remaining %) [2]: A (A is defined as 0% ≤ substrate protein remaining % ≤ 80%)

CC(=O)c1c(C)c2cnc(Nc3ccc(N4CCN(Cc5ccc(N6CCC(=O)NC6=O)nc5)CC4)cn3)nc2n(C2CCCC2)c1=O [GT-06579, 1-(5-((4-(6-((6-acetyl-8-cyclopentyl-5-methyl-7-oxo-7,8-dihydropyrido[2,3-d]pyrimidin-2-yl)amino)pyridin-3-yl)piperazin-1-yl)methyl)pyridin-2-yl)dihydropyrimidine-2,4(1H,3H)-dione]
Degradation of substrate protein CDK4 (substrate protein remaining %) [1]: B (B is defined as substrate protein remaining % > 80%)
Degradation of substrate protein CDK6 (substrate protein remaining %) [2]: A (A is defined as 0% ≤ substrate protein remaining % ≤ 80%)

CN(C)C(=O)c1cc2cnc(Nc3ccc(N4CCN(Cc5cc(N6CCC(=O)NC6=O)ncc5F)CC4)cn3)nc2n1C1CCCC1 [GT-07474, 7-cyclopentyl-2-((5-(4-((2-(2,4-dioxotetrahydropyrimidin-1(2H)-yl)-5-fluoropyridin-4-yl)methyl)piperazin-1-yl)pyridin-2-yl)amino)-N,N-dimethyl-7H-pyrrolo[2,3-d]pyrimidine-6-carboxamide]
Degradation of substrate protein CDK4 (substrate protein remaining %) [1]: A (A is defined as 0% ≤ substrate protein remaining % ≤ 80%)
Degradation of substrate protein CDK6 (substrate protein remaining %) [2]: A (A is defined as 0% ≤ substrate protein remaining % ≤ 80%)

CN(C)C(=O)c1cc2cnc(Nc3ccc(N4CCN(Cc5ccnc(C6CCC(=O)NC6=O)c5)CC4)cn3)nc2n1C1CCCC1 (stereo not drawn) [GT-07478, 7-cyclopentyl-2-((5-(4-((2-(2,6-dioxopiperidin-3-yl)pyridin-4-yl)methyl)piperazin-1-yl)pyridin-2-yl)amino)-N,N-dimethyl-7H-pyrrolo[2,3-d]pyrimidine-6-carboxamide]
Degradation of substrate protein CDK4 (substrate protein remaining %) [1]: A (A is defined as 0% ≤ substrate protein remaining % ≤ 80%)
Degradation of substrate protein CDK6 (substrate protein remaining %) [2]: A (A is defined as 0% ≤ substrate protein remaining % ≤ 80%)
